Literature values as cited in patent US9714250B2, “Crystalline forms of temozolomide and the method for preparing same” (Jiangsu Tasly Diyi Pharmaceutical Co., Ltd., priority 2013, dated 2017).

Details: heated to approximately 30° C.; in US20050187206; cited from earlier work

Cn1nnc2c(C(N)=O)ncn2c1=O [Form I, Temozolomide]
Crystalline form transformation on heating: transformed into crystalline Form II
